Here are results for 2 compounds from paper PMC5791972 (PLoS ONE, 2018).

Assay [1] addresses Kv4.3 (Homo sapiens, UniProt Q9UK17). Put plainly: Ion channel selectivity patch clamp. The format is cell-based. The settings on record: Voltage (+40 mV). A general note: In patch-clamp work, channel activity is measured electrically.
Assay [2] concerns the target T1, BLT1 (LTB4) (h) (Homo sapiens, UniProt Q15722).
T1 construct: host or cells: CHO cells
The format is binding. The settings on record: 1.0E-06 M.

Assay [3] addresses T2, NK2 (h) (Homo sapiens, UniProt P21452).
T2 construct: host or cells: CHO cells
T2 sequence (P21452 1-398): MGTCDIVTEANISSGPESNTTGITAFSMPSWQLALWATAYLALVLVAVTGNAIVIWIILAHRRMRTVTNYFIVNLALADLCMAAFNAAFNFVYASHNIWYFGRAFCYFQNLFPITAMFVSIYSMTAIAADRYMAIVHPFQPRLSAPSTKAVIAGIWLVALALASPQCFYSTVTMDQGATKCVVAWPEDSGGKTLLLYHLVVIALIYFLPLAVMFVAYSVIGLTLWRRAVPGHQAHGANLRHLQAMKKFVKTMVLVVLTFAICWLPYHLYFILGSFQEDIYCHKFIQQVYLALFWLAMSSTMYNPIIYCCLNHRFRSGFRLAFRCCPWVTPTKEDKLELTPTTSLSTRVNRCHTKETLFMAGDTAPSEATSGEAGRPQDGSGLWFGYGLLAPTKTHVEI
The format is binding. The settings on record: 1.0E-06 M.

Assay [4] addresses 5-HT4e (h) (Homo sapiens, UniProt Q13639). Put plainly: biochemical.
Assay [5] has as its target Lyn A kinase (h) (Homo sapiens, UniProt P07948). As to the kind of experiment: biochemical. The settings on record: 1.0E-06 M.
In assay [6] the target is T3, α2C (h) (Homo sapiens, UniProt P18825).
T3 construct: host or cells: CHO cells
T3 sequence (P18825 1-462): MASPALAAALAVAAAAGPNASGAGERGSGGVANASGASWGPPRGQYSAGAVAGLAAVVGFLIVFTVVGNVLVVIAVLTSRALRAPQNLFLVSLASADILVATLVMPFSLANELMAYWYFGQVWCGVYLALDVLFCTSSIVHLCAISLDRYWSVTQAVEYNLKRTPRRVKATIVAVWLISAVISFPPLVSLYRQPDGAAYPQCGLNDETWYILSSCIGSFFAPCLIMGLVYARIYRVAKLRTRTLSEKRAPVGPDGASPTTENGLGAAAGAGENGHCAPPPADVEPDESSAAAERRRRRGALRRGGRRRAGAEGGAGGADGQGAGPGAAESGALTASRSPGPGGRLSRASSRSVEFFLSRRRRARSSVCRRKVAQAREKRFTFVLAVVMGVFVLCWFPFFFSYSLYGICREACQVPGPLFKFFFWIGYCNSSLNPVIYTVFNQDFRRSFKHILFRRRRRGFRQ
The format is binding. The conditions noted are these: 1.0E-06 M.

The target in assay [7] is T4, M4 (h) (Homo sapiens, UniProt P08173).
T4 sequence (P08173 1-479): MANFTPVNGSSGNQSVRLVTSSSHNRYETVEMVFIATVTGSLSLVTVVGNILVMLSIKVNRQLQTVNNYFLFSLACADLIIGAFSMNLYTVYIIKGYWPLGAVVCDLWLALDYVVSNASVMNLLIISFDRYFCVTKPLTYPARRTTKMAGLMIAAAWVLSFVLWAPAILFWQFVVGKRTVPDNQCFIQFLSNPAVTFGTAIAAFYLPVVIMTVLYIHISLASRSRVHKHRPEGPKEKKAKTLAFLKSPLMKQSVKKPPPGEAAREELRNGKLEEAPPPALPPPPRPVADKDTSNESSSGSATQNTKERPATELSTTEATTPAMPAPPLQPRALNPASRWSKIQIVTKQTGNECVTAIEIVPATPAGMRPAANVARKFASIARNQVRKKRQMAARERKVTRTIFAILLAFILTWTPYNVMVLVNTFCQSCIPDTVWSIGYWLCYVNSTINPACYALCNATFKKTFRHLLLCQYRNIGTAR
Put plainly: biochemical.

In assay [8] the test system is TNF-α (h). The format is binding, human. The conditions noted are these: 1.0E-06 M.
The target in assay [9] is T5, NK1 (h) (Homo sapiens, UniProt P25103).
T5 construct: (endogenous); host or cells: U-373MG cells
T5 sequence (P25103 whole entry): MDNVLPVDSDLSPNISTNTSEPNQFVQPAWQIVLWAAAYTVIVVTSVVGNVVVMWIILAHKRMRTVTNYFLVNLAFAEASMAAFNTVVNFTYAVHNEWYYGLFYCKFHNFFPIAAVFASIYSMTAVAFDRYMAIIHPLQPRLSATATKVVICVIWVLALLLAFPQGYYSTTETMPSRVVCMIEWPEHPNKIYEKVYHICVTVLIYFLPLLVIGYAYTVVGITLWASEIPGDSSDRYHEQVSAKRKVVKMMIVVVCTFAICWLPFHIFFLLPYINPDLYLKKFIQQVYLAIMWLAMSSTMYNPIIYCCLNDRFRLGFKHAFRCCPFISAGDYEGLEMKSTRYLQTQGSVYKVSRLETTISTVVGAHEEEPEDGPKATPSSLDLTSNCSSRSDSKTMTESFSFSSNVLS
The format is binding. The settings on record: 1.0E-06 M.

Assay [10] deals with MMP-9 (h) (Homo sapiens, UniProt P14780). As to the kind of experiment: biochemical. The format is biochemical. The settings on record: 1.0E-06 M.
Chain of MMP-9 (h) (P14780 94-707): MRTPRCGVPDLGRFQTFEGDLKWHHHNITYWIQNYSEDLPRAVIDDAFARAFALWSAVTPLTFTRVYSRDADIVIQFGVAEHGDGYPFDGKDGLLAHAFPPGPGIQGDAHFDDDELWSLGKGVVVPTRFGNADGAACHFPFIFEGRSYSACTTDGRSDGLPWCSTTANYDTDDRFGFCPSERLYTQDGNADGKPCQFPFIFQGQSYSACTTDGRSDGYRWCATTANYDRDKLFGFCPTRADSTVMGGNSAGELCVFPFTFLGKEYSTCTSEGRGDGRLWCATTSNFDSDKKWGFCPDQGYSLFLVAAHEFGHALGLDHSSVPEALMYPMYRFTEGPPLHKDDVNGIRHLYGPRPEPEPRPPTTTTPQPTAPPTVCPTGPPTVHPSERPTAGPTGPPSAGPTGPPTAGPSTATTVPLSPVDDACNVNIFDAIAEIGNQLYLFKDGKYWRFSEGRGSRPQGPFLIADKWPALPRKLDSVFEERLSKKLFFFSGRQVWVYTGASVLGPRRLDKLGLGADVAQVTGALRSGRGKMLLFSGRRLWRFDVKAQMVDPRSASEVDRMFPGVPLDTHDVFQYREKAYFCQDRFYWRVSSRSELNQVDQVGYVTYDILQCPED
For assay [11], the target named is T6, 5-HT2B (h) (Homo sapiens, UniProt P41595).
T6 construct: host or cells: CHO cells
T6 sequence (P41595 whole entry): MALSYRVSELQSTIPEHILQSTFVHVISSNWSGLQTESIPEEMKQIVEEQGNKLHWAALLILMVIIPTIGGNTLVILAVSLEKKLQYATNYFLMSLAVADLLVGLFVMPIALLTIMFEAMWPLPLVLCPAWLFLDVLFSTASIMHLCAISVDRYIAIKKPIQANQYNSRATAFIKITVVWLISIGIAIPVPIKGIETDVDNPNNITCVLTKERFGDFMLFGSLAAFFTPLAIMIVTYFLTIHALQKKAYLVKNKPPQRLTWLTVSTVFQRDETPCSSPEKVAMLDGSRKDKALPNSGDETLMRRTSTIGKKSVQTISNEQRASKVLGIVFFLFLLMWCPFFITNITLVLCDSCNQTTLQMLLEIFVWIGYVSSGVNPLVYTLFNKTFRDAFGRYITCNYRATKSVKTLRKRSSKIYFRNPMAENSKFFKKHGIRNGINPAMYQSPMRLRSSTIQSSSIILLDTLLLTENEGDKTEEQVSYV
Format: binding. The settings on record: 1.0E-06 M.

Assay [12] deals with CCK1 (CCKA) (h) (Homo sapiens, UniProt P32238). Format: binding. The conditions noted are these: 1.0E-06 M.
Chain of CCK1 (CCKA) (h) (P32238 whole entry): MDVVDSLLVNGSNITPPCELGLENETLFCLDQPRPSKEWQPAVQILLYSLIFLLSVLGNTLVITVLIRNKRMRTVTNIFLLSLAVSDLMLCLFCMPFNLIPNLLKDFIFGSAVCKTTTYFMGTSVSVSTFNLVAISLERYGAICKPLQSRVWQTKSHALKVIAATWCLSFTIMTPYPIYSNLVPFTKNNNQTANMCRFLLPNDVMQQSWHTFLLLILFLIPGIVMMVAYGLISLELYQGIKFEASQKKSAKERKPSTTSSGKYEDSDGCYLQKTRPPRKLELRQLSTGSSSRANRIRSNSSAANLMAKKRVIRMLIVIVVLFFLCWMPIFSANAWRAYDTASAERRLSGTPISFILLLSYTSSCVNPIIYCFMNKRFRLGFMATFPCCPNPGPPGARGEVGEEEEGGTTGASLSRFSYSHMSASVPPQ
Assay [13] concerns AMPA. The format is binding, rat. The conditions noted are these: 1.0E-06 M.
Assay [14] addresses T7, hTRPC5 (Homo sapiens, UniProt Q9UL62).
T7 construct: The cDNAs for various full-length ion channels were subcloned into pcDNA5/TO; expressed in transfected cells
As to the kind of experiment: Whole-cell manual patch clamp. The format is cell-based.

For orientation: IC50 means the concentration needed to halve the response being measured. A low value points to inhibition by little substance. A word on the inhibition: it is the drop in the measured response relative to a control, in per cent.

Molecules are shown by their SMILES. Like-named read-outs stand apart in the source and are kept apart here.

T1 sequence (Q15722 whole entry): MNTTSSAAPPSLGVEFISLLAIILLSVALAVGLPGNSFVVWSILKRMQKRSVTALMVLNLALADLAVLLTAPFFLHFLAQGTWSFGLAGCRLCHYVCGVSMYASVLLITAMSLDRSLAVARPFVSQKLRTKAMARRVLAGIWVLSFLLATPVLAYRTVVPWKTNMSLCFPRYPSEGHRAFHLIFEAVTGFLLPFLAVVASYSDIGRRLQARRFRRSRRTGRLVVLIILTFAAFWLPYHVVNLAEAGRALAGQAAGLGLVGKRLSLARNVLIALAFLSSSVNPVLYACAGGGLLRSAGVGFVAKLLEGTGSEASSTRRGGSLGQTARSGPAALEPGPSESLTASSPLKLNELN
Chain of 5-HT4e (h) (Q13639 1-378 isoform Q13639-5): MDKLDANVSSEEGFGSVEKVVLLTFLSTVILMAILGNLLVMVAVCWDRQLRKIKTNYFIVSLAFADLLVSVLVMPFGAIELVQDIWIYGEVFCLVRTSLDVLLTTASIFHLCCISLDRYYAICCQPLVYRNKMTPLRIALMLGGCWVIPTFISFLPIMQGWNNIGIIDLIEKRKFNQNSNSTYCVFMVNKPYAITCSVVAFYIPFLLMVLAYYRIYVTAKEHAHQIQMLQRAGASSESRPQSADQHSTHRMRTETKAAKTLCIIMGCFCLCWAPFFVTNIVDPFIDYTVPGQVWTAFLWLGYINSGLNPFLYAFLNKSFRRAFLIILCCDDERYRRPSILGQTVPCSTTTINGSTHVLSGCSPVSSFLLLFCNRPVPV
Chain of Lyn A kinase (h) (P07948 whole entry): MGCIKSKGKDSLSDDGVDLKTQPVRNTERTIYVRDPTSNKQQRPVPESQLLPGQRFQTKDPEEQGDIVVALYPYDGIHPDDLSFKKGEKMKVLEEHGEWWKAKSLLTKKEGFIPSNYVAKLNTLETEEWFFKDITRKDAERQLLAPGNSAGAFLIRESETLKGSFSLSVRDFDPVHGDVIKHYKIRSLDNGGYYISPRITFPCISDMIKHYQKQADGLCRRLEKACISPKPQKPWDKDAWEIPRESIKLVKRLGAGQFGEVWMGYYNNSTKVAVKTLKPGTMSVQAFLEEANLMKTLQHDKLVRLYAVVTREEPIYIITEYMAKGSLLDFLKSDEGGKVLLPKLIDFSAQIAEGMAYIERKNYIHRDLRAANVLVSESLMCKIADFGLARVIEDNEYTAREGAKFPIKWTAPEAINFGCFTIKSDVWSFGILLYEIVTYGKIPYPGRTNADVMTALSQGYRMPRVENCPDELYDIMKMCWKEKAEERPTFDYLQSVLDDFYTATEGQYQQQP
T7 sequence (Q9UL62 whole entry): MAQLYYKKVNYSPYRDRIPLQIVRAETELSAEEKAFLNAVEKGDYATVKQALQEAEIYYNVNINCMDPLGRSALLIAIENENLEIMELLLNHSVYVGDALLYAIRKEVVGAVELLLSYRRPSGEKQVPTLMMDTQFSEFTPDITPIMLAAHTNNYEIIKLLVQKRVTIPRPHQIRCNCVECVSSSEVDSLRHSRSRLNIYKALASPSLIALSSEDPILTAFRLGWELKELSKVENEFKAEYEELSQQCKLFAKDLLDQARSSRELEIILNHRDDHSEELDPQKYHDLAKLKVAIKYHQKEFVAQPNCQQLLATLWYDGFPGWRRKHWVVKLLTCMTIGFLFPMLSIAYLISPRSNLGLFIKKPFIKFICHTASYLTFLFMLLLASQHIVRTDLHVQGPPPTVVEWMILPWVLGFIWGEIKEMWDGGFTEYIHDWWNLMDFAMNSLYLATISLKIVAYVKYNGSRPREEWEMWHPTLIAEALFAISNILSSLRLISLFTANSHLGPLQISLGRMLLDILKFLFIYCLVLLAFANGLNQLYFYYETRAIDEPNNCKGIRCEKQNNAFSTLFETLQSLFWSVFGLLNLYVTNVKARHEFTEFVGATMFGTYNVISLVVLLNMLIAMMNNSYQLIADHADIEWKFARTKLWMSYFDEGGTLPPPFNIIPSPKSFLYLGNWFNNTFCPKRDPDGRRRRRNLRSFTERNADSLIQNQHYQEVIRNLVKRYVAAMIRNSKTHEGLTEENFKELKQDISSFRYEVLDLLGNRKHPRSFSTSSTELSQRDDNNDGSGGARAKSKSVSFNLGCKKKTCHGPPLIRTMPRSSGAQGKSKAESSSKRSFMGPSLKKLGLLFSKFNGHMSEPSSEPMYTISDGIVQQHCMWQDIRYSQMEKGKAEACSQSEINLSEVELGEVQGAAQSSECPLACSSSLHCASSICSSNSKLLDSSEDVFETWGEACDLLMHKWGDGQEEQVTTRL

With `Cn1c(=O)n(CCCO)c(=O)c2c1nc(Oc1cccc(Cl)c1)n2Cc1ccc(Cl)cc1` [HC-070], the half-inhibitory concentration (IC50) in assay [1] is greater than 1900 nM.
As for `Cn1c(=O)n(CCCO)c(=O)c2c1nc(Oc1cccc(OC(F)(F)F)c1)n2Cc1ccc(Cl)cc1` [HC-608], the inhibition at 1 µM in [2] (read-out: % Inhibition 1st) is -2.9%; in [2] (read-out: % Inhibition 2nd), 13.4%; in assay [2] (read-out: % Inhibition Mean), 5.3%; in assay [3] (read-out: % Inhibition 1st) it was -10%; in [3] (read-out: % Inhibition 2nd), 18.9%; in assay [3] (read-out: % Inhibition Mean), 4.4%. The inhibition at 1 µM in assay [4] (read-out: % Inhibition 1st) was -3.7%; in assay [4] (read-out: % Inhibition 2nd) it was 10.6%; in assay [4] (read-out: % Inhibition Mean), 3.4%; in assay [5] (read-out: % Inhibition 1st), 13.7%; in [5] (read-out: % Inhibition 2nd) it was 5.5%; in [5] (read-out: % Inhibition Mean) it was 9.6%. Moreover, the inhibition at 1 µM in assay [6] (read-out: % Inhibition 1st) was -4.1%; in assay [6] (read-out: % Inhibition 2nd), -10.2%; in [6] (read-out: % Inhibition Mean), -7.1%; in assay [7] (read-out: % Inhibition 1st), -16.1%; in assay [7] (read-out: % Inhibition 2nd), 3.9%; in [7] (read-out: % Inhibition Mean), -6.1%. The inhibition at 1 µM in assay [9] (read-out: % Inhibition 1st) was -2.6%; in assay [9] (read-out: % Inhibition 2nd), -13%; in assay [9] (read-out: % Inhibition Mean) it was -7.8%; in [10] (read-out: % Inhibition 1st), 8.7%; in assay [10] (read-out: % Inhibition 2nd), 17.2%; in assay [10] (read-out: % Inhibition Mean), 13%. In addition, the inhibition at 1 µM in [11] (read-out: % Inhibition 1st) is 15.9%; in assay [11] (read-out: % Inhibition 2nd) it was 15.8%; in assay [11] (read-out: % Inhibition Mean) it was 15.9%; in [12] (read-out: % Inhibition 1st), -11.2%; in assay [12] (read-out: % Inhibition 2nd), -0.4%; in [12] (read-out: % Inhibition Mean), -5.8%. For the same compound, the “% Inhibition 1st” value in assay [8] is given as 8.8%; in assay [13], -2.1%. Further, the entries for the “% Inhibition 2nd” value in [8] and in assay [13] were -8.6% and -9.2%, respectively. The results for the “% Inhibition Mean” value in assay [8] and in assay [13] were 0.1% and -5.6%, respectively. Moreover, the IC50 was roughly 0.67 nM in assay [14] (20 μM carbachol/M1R) and roughly 0.17 nM in [14] (La3+ (80 μM)).
